Results as given in patent US11672800B2, “Combination therapies with EHMT2 inhibitors” (Epizyme, Inc., priority 2017, dated 2023).

Key:
Format in all cases: cell-based
MeWo = assay: In vitro combination study of Compound 205 with a second agent, melanoma cell proliferation (CellTiter Glo, Loewe synergy); conditions: combination with Compound 205; for Combinatorial effect (Loewe method) of second agent with Compound 205, MeWo: 7 days pre-treatment with Compound 205, then 7 days co-treatment, ATP content, Loewe volume >1 synergy, -1 to 1 additivity; for Combinatorial effect (Loewe method) of second agent with Compound 205, MeWo: key: SYN Synergy; ADD Additivity
Experimental: (§1) On day 14 plates were developed for endpoint analysis using CellTiter Glo to measure ATP content, which was used as an indicator of cell viability. DMSO concentration was kept constant throughout the assay at 0.2% v/v.
(§2) All cells were maintained and cultured at 37° C., in a humidified atmosphere and 5% CO2.
(§3) Loewe volumes greater than 1 denoted synergy and volumes below −1 denoted antagonism. A value between −1 and 1 denoted additivity.

WM-266-4 = assay: as above; conditions: combination with Compound 205; for Combinatorial effect (Loewe method) of second agent with Compound 205, WM-266-4: 7 days pre-treatment with Compound 205, then 7 days co-treatment, ATP content, Loewe volume >1 synergy, -1 to 1 additivity; for Combinatorial effect (Loewe method) of second agent with Compound 205, WM-266-4: key: SYN Synergy; ADD Additivity
Experimental: as §1, §2, §3

CCRF-CEM = assay: In vitro long term proliferation (LTP), T-ALL cell line; conditions: Homo sapiens, 336 h, 14 day LTP, absolute IC50, seeding density 100000, read-out: Compound A75 IC50
Experimental: (§4) Exponentially growing T-cell lymphocytic leukemia (T-ALL) cells were plated, in triplicate, in 96-well plates at the appropriate cell density in a final volume of 150 μl. Cells were incubated in the presence of increasing concentrations of Compound A75. Viable cell number was determined at day 0, 4, 7, 11 and 14 days using Calcein staining and using an Accumen instrument to enumerate the number of cells. On days of cell counts, growth media and Compound A75 were replaced and cells split back to initial density. Total cell number is expressed as split-adjusted viable cells per well. For each cell line, absolute IC50 values (concentration of compound at which 50% inhibition occurs) were determined from concentration-dependence curves at 14 days using Graphpad Prism software.

Jurkat = assay: as above; conditions: Homo sapiens, 336 h, 14 day LTP, absolute IC50, seeding density 100000, read-out: Compound A75 IC50
Experimental: as §4

MOLT-16 = assay: as above; conditions: Homo sapiens, 336 h, 14 day LTP, absolute IC50, seeding density 100000, read-out: Compound A75 IC50
Experimental: as §4

MOLT-4 = assay: as above; conditions: Homo sapiens, 336 h, 14 day LTP, absolute IC50, seeding density 100000, read-out: Compound A75 IC50
Experimental: as §4

PEER = assay: as above; conditions: Homo sapiens, 336 h, 14 day LTP, absolute IC50, seeding density 250000, read-out: Compound A75 IC50
Experimental: as §4

SUP-T1 = assay: as above; conditions: Homo sapiens, 336 h, 14 day LTP, absolute IC50, seeding density 200000, read-out: Compound A75 IC50
Experimental: as §4

TALL-1 = assay: as above; conditions: Homo sapiens, 336 h, 14 day LTP, absolute IC50, seeding density 150000, read-out: Compound A75 IC50
Experimental: as §4

In the case of `CC(C)NC[C@@H](C(=O)N1CCN(c2ncnc3c2[C@H](C)C[C@H]3O)CC1)c1ccc(Cl)cc1` [GDC-0068, (2S)-2-(4-chlorophenyl)-1-[4-[(5R,7R)-7-hydroxy-5-methyl-6,7-dihydro-5H-cyclopenta[d]pyrimidin-4-yl]piperazin-1-yl]-3-(propan-2-ylamino)propan-1-one], the “Combinatorial effect (Loewe method) of second agent with Compound 205, MeWo” value (from here on “Combinatorial effect (Loewe method) … MeWo”) (MeWo) is reported as “ADD” and the “Combinatorial effect (Loewe method) of second agent with Compound 205, WM-266-4” value (shortened to “Combinatorial effect (Loewe method) … WM-266-4”) (WM-266-4) is reported as “SYN”.
With `CNC(=O)c1cc(Oc2ccc(NC(=O)Nc3ccc(Cl)c(C(F)(F)F)c3)cc2)ccn1` [Sorafenib] the “Combinatorial effect (Loewe method) … MeWo” value (MeWo) was “ADD” and the “Combinatorial effect (Loewe method) … WM-266-4” value (WM-266-4) was “SYN”.
In the case of `Nc1cc(C(F)(F)F)c(-c2cc(N3CCOCC3)nc(N3CCOCC3)n2)cn1` [BKM120, 5-(2,6-dimorpholin-4-ylpyrimidin-4-yl)-4-(trifluoromethyl)pyridin-2-amine], the “Combinatorial effect (Loewe method) … MeWo” value (MeWo) is reported as “SYN” and the “Combinatorial effect (Loewe method) … WM-266-4” value (WM-266-4) is reported as “SYN”.
With `CC(=O)c1c(C)c2cnc(Nc3ccc(N4CCNCC4)cn3)nc2n(C2CCCC2)c1=O` [Palbociclib, palbociclib] the “Combinatorial effect (Loewe method) … MeWo” value (MeWo) was “SYN” and the “Combinatorial effect (Loewe method) … WM-266-4” value (WM-266-4) was “SYN”.
With `CO[C@H]1C[C@@H]2CC[C@@H](C)[C@@](O)(O2)C(=O)C(=O)N2CCCC[C@H]2C(=O)O[C@H]([C@H](C)C[C@@H]2CC[C@@H](OCCO)[C@H](OC)C2)CC(=O)[C@H](C)/C=C(\C)[C@@H](O)[C@@H](OC)C(=O)[C@H](C)C[C@H](C)/C=C/C=C/C=C/1C` [Everolimus, everolimus] the “Combination effect of Compound 205 and Everolimus (figure legend)” value (MeWo; MeWo melanoma cell line, FIG. 6) was “synergy”, the “Combinatorial effect (Loewe method) … MeWo” value (MeWo) was “SYN” and the “Combinatorial effect (Loewe method) … WM-266-4” value (WM-266-4) was “SYN”. The “Combination effect of Compound 205 and Everolimus (figure legend)” value (WM-266-4; WM-266-4 melanoma cell line, FIG. 6) was “synergy”.
`CC(C)Nc1cc(-c2c[nH]c(C(=O)N[C@H](CO)c3cccc(Cl)c3)c2)c(Cl)cn1` [BVD-523, N-[(1S)-1-(3-chlorophenyl)-2-hydroxyethyl]-4-[5-chloro-2-(propan-2-ylamino)-pyridin-4-yl]-1H-pyrrole-2-carboxamide] was tested, and the “Combinatorial effect (Loewe method) … MeWo” value (MeWo) was “ADD” and the “Combinatorial effect (Loewe method) … WM-266-4” value (WM-266-4) was “ADD”.
In the case of `Cn1cnc2c(F)c(Nc3ccc(Br)cc3Cl)c(C(=O)NOCCO)cc21` [Selumetinib, selumetinib], the “Combinatorial effect (Loewe method) … MeWo” value (MeWo) is reported as “ADD” and the “Combinatorial effect (Loewe method) … WM-266-4” value (WM-266-4) is reported as “ADD”.
For `CNC1=Nc2cc(C#CCN3CCCCC3)c(OC)cc2C12CCC2` [Compound A75], the IC50 (CCRF-CEM) was 1000 to 5000 nM, the IC50 (Jurkat) was 1000 to 5000 nM and the IC50 (MOLT-16) was 100 to 1000 nM. The IC50 (MOLT-4) was 100 to 1000 nM, the IC50 (PEER) was < 100 nM and the IC50 (SUP-T1) was 5000 to 15000 nM. It also gave an IC50 (TALL-1) of 5000 to 15000 nM.
In the case of `CC(=O)Nc1cccc(-n2c(=O)n(C3CC3)c(=O)c3c(Nc4ccc(I)cc4F)n(C)c(=O)c(C)c32)c1` [Trametinib], the “Combinatorial effect (Loewe method) … MeWo” value (MeWo) is reported as “ADD” and the “Combinatorial effect (Loewe method) … WM-266-4” value (WM-266-4) is reported as “ADD”.
With `NC1(c2ccc(-c3nc4ccn5c(=O)[nH]nc5c4cc3-c3ccccc3)cc2)CCC1` [MK-2206] the “Combinatorial effect (Loewe method) … MeWo” value (MeWo) was “SYN” and the “Combinatorial effect (Loewe method) … WM-266-4” value (WM-266-4) was “SYN”.
For `CS(=O)(=O)N1CCN(Cc2cc3nc(-c4cccc5[nH]ncc45)nc(N4CCOCC4)c3s2)CC1` [Pictilisib, 4-[2-(1H-indazol-4-yl)-6-[(4-methylsulfonylpiperazin-1-yl)methyl]thieno[3,2-d]pyrimidin-4-yl]morpholine], the “Combinatorial effect (Loewe method) … MeWo” value (MeWo) was “SYN” and the “Combinatorial effect (Loewe method) … WM-266-4” value (WM-266-4) was “SYN”.
